Experimental data published in publication PMC9396657, “Directed Evolution of (R)-2-Hydroxyglutarate Dehydrogenase Improves 2-Oxoadipate Reduction by 2 Orders of Magnitude” (ACS Synthetic Biology, 2022).

Columns and labels:
Assay in all cases: NADH oxidation at […] nm, initial rates
Type in all cases: biochemical
Hgdh [1] = target: T1, Hgdh (Acidaminococcus fermentans, UniProt D2RJU7, V11K/V11M/A206V/A214V/V312I, form not given); settings: 0.25 mM NADH, 50 mM phosphate pH 8, 25 °C, apparent, residue 11 contradictory: V11K, A2 is the extra cloning Ala
T1 construct: full length, codon-optimized, expressed in E. coli BL21(DE3) from pET-28b, extra Ala after start Met, C-terminal thrombin site and His tag (kept), homodimer of 75 kDa

Hgdh [2] = target: T2, Hgdh (Acidaminococcus fermentans, UniProt D2RJU7, V11K/V11M/A206V/A214V/E304K, form not given); settings: 0.25 mM NADH, 50 mM phosphate pH 8, 25 °C, apparent, residue 11 contradictory: V11K, A2 is the extra cloning Ala
T2 construct: full length, codon-optimized, expressed in E. coli BL21(DE3) from pET-28b, extra Ala after start Met, C-terminal thrombin site and His tag (kept), homodimer of 75 kDa

Hgdh [3] = target: T3, Hgdh (Acidaminococcus fermentans, UniProt D2RJU7, V11K/V11M/A206V/A214D/K307I, form not given); settings: 0.25 mM NADH, 50 mM phosphate pH 8, 25 °C, apparent, residue 11 contradictory: V11K, A2 is the extra cloning Ala
T3 construct: full length, codon-optimized, expressed in E. coli BL21(DE3) from pET-28b, extra Ala after start Met, C-terminal thrombin site and His tag (kept), homodimer of 75 kDa

Hgdh [4] = target: T4, Hgdh (Acidaminococcus fermentans, UniProt D2RJU7); settings: 0.25 mM NADH, 50 mM phosphate pH 8, 25 °C; apparent (Km of NADH not determined)
T4 construct: full length, codon-optimized, expressed in E. coli BL21(DE3) from pET-28b, extra Ala after start Met, C-terminal thrombin site and His tag (kept), homodimer of 75 kDa
T4 sequence (D2RJU7 whole entry): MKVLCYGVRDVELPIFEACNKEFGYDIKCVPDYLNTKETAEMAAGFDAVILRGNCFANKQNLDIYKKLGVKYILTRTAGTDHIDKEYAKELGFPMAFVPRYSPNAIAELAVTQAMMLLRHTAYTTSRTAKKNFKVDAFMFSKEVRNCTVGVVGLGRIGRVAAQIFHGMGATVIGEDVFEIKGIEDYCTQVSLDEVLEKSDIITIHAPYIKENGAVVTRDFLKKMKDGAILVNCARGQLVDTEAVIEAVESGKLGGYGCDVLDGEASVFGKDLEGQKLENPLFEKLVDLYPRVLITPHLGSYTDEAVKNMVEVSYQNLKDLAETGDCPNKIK

T3 sequence (D2RJU7 whole entry, stated change not applied): as the sequence (D2RJU7 whole entry) above
T1 sequence (D2RJU7 whole entry, stated change not applied): as the sequence (D2RJU7 whole entry) above
T2 sequence (D2RJU7 whole entry, stated change not applied): as the sequence (D2RJU7 whole entry) above

- Km (Hgdh [1]): 9.72 ± 0.67 mM
- Km (Hgdh [2]): 4.18 ± 0.2 mM
- Km (Hgdh [3]): 3.05 ± 0.24 mM
- Km (Hgdh [4]): 2.96 ± 0.24 mM
SMILES: O=C(O)CCCC(=O)C(=O)O [2-oxoadipate]
